Converted amounts (≈) assume the structure as drawn. Like-named read-outs stand apart in the source and are kept apart here.
How the values were obtained:
Assay type in all cases: cell-based
[1] = test system: Mycobacterium tuberculosis (MTB); test: MIC by proportions method (NCCLS M24-T, 1995), 82 MTB strains; conditions: compared with the other quinolones
[2] = test system: Hafnia alvei; test: MIC by agar dilution (NCCLS M7-A4), 288 enteropathogenic isolates, eight quinolones; conditions: Hafnia alvei (n = 32)
[3] = test system: Shigella spp.; test: as above; conditions: Shigella spp. (n = 21)
[4] = test system: Streptococcus pneumoniae; test: MIC by NCCLS reference broth microdilution, 450 respiratory tract pathogens; conditions: for MIC / MIC50 / MIC90: Streptococcus pneumoniae
[5] = test system: Streptococcus pneumoniae; test: MIC by broth microdilution (NCCLS), dried MicroScan panels, clinical isolates 1998-1999; conditions: for MIC90: Streptococcus pneumoniae
[6] = test system: Streptococcus pneumoniae; test: MIC by two-fold serial agar dilution, Sensitivity Disk agar-N (Kitasato isolates); conditions: for MIC90 / MIC / MIC50: Streptococcus pneumoniae; for MIC90: read-out: MIC90; for MIC: read-out: MIC Range; for MIC50: read-out: MIC50
[7] = test system: E. coli; test: microbe, parasite or virus in culture; conditions: for MIC50 / MIC: Escherichia coli
[8] = test system: P. aeruginosa; test: MIC by two-fold serial agar dilution, quinolone-resistant strains; conditions: Pseudomonas aeruginosa
[9] = test system: Streptococcus pneumoniae; test: MIC by NCCLS broth microdilution, 1100 Japanese clinical isolates 1997-1998; conditions: for MIC50 / MIC90 / MIC: Streptococcus pneumoniae; for MIC50: read-out: MIC50; for MIC90: read-out: MIC90; for MIC: Streptococcus pneumoniae quinolone resistant
[10] = test system: Escherichia coli; test: as above; conditions: for MIC50 / MIC90: Escherichia coli
[11] = test system: Klebsiella pneumoniae; test: as above; conditions: Klebsiella pneumoniae (n=35)
[12] = test system: Enterobacter aerogenes; test: as above; conditions: Enterobacter aerogenes (n=35)
[13] = test system: Enterobacter cloacae; test: as above; conditions: Enterobacter cloacae (n=40)
[14] = test system: Enterobacter spp.; test: MIC by agar dilution (NCCLS), 322 nosocomial Gram negative isolates, Athens 1998; conditions: n = 57 isolates
[15] = test system: Enterococcus faecium; test: MIC by agar macrodilution (NCCLS), 373 Gram positive isolates, Athens 1998
[16] = Streptococcus pneumoniae (n = 100)
[17] = erythromycin resistant M phenotype (n = 16)
[18] = penicillin intermediate (n = 16)
[19] = penicillin susceptible (n = 20)
[20] = Streptococcus pneumoniae (302 isolates)
[21] = Streptococcus pneumoniae amoxicillin resistant (n=40)
[22] = Streptococcus pneumoniae amoxicillin susceptible (n=35)
[23] = Streptococcus pneumoniae erythromycin resistant (n=34)
[24] = Streptococcus pneumoniae erythromycin susceptible (n=11)
[25] = Escherichia coli ciprofloxacin susceptible (n=37)

Compound: CO/N=C1\CN(c2nc3c(cc2F)c(=O)c(C(=O)O)cn3C2CC2)CC1CN (racemic) [Gemifloxacin, (R,S)-7-(3-aminomethyl-4-methoxyiminopyrrolidin-1-yl)-1-cyclopropyl-6-fluoro-4-oxo-1,4-dihydro-1,8-naphthyridine-3-carboxylic acid]
- in vitro activity against MTB [1]: lower in vitro activity
- % Susceptible [2]: 100%
- MIC50 [2]: 0.03 µg/mL (≈ 0.077 µM)
- MIC90 [2]: 0.03 µg/mL (≈ 0.077 µM)
- MIC Range [2]: ≤0.015 to 0.06 µg/mL
- % Susceptible [3]: 100%
- MIC50 [3]: ≤ 0.015 µg/mL
- MIC90 [3]: ≤ 0.015 µg/mL
- MIC Range [3]: ≤0.015 µg/mL
- times more potent than all comparator agents ([4]; S. pneumoniae): 4-64 times
- MIC [4, 16]: 0.0075 to 0.03 µg/mL (≈ 0.0193 to 0.077 µM)
- MIC50 [4, 16]: 0.015 µg/mL (≈ 0.0385 µM)
- MIC90 [4, 16]: 0.03 µg/mL (≈ 0.077 µM)
- MIC [4, 17]: 0.015 to 0.05 µg/mL (≈ 0.0385 to 0.128 µM)
- MIC50 [4, 17]: 0.015 µg/mL (≈ 0.0385 µM)
- MIC90 [4, 17]: 0.03 µg/mL (≈ 0.077 µM)
- MIC ([4]; erythromycin resistant MLSB phenotype (n = 16)): 0.0075 to 0.03 µg/mL (≈ 0.0193 to 0.077 µM)
- MIC ([4]; multi-drug resistant (n = 16)): 0.0075 to 0.03 µg/mL (≈ 0.0193 to 0.077 µM)
- MIC50 ([4]; multi-drug resistant (n = 16)): 0.015 µg/mL (≈ 0.0385 µM)
- MIC90 ([4]; multi-drug resistant (n = 16)): 0.03 µg/mL (≈ 0.077 µM)
- MIC [4, 18]: 0.0075 to 0.03 µg/mL (≈ 0.0193 to 0.077 µM)
- MIC50 [4, 18]: 0.015 µg/mL (≈ 0.0385 µM)
- MIC90 [4, 18]: 0.015 µg/mL (≈ 0.0385 µM)
- MIC ([4]; penicillin resistant (n = 18)): 0.0075 to 0.06 µg/mL (≈ 0.0193 to 0.154 µM)
- MIC50 ([4]; penicillin resistant (n = 18)): ≤ 0.0075 µg/mL
- MIC90 ([4]; penicillin resistant (n = 18)): 0.06 µg/mL (≈ 0.154 µM)
- MIC [4, 19]: 0.0075 to 0.03 µg/mL (≈ 0.0193 to 0.077 µM)
- MIC50 [4, 19]: 0.015 µg/mL (≈ 0.0385 µM)
- MIC90 [4, 19]: 0.03 µg/mL (≈ 0.077 µM)
- more active than grepafloxacin ([5]; S. pneumoniae): two-fold
- more active than levofloxacin ([5]; S. pneumoniae): 16 fold
- more active than trovafloxacin ([5]; S. pneumoniae): four-fold
- MIC50 [5, 20]: 0.03 µg/mL (≈ 0.077 µM)
- MIC Range [5, 20]: ≤0.0015 to 0.12 µg/mL
- MIC90 ([5]; Erythromycin-resistant (86)): 0.03 µg/mL (≈ 0.077 µM)
- MIC90 ([5]; Erythromycin-sensitive (216)): 0.06 µg/mL (≈ 0.154 µM)
- MIC90 ([5]; Penicillin-intermediate (124)): 0.03 µg/mL (≈ 0.077 µM)
- MIC90 ([5]; Penicillin-resistant (80)): 0.06 µg/mL (≈ 0.154 µM)
- MIC90 ([5]; Penicillin-sensitive (98)): 0.06 µg/mL (≈ 0.154 µM)
- MIC90 [5, 20]: 0.06 µg/mL (≈ 0.154 µM)
- more potent than sparfloxacin ([6]; S. pneumoniae, by MIC90): 8 fold
- more potent than trovafloxacin ([6]; S. pneumoniae, by MIC90): 4 fold
- MIC90 ([6]; 18 h, Ciprofloxacin-resistant (21), ciprofloxacin MIC ≥8 µg/ml): 0.5 µg/mL (≈ 1.28 µM)
- MIC ([6]; 18 h, Ciprofloxacin-resistant (21)): 0.063 to 0.5 µg/mL (≈ 0.162 to 1.28 µM)
- MIC ([6]; 18 h, Ciprofloxacin-susceptible (94)): 0.008 to 0.063 µg/mL (≈ 0.0205 to 0.162 µM)
- MIC ([6]; 18 h, Erythromycin-resistant (37)): 0.016 to 0.5 µg/mL (≈ 0.0411 to 1.28 µM)
- MIC ([6]; 18 h, Minocycline-resistant (37)): 0.016 to 0.5 µg/mL (≈ 0.0411 to 1.28 µM)
- MIC ([6]; 18 h, Penicillin-resistant (19)): 0.016 to 0.063 µg/mL (≈ 0.0411 to 0.162 µM)
- MIC50 ([6]; Ciprofloxacin-resistant (21)): 0.25 µg/mL (≈ 0.642 µM)
- MIC50 ([6]; Ciprofloxacin-susceptible (94)): 0.031 µg/mL (≈ 0.0796 µM)
- MIC90 ([6]; Ciprofloxacin-susceptible (94)): 0.031 µg/mL (≈ 0.0796 µM)
- MIC50 ([6]; Erythromycin-resistant (37)): 0.031 µg/mL (≈ 0.0796 µM)
- MIC90 ([6]; Erythromycin-resistant (37)): 0.063 µg/mL (≈ 0.162 µM)
- MIC50 ([6]; Minocycline-resistant (37)): 0.031 µg/mL (≈ 0.0796 µM)
- MIC90 ([6]; Minocycline-resistant (37)): 0.063 µg/mL (≈ 0.162 µM)
- MIC50 ([6]; Penicillin-resistant (19)): 0.016 µg/mL (≈ 0.0411 µM)
- MIC90 ([6]; Penicillin-resistant (19)): 0.063 µg/mL (≈ 0.162 µM)
- MIC90 ([7]; E. coli (13 strains), quinolone-resistant): 0.25 µg/mL (≈ 0.642 µM)
- MIC50 ([7]; E. coli (13 strains), quinolone-resistant, read-out: MIC50): 0.031 µg/mL (≈ 0.0796 µM)
- MIC ([7]; E. coli KU1029, mutant type SP (spontaneous mutant in the DNA gyrase)): 0.031 µg/mL (≈ 0.0796 µM)
- MIC ([7]; E. coli KU1030, mutant type SP): 0.031 µg/mL (≈ 0.0796 µM)
- MIC ([7]; E. coli KU1031, mutant type SP): 0.031 µg/mL (≈ 0.0796 µM)
- MIC ([7]; E. coli KU1032, mutant type SP): 0.125 µg/mL (≈ 0.321 µM)
- MIC ([7]; E. coli KU1033, mutant type SP): 0.016 µg/mL (≈ 0.0411 µM)
- MIC ([7]; E. coli KU1034, mutant type GA (DNA gyrase A)): 0.25 µg/mL (≈ 0.642 µM)
- MIC ([7]; E. coli KU1035, mutant type GA (DNA gyrase A)): 0.25 µg/mL (≈ 0.642 µM)
- MIC ([7]; E. coli KU1036, mutant type GB (DNA gyrase B)): 0.031 µg/mL (≈ 0.0796 µM)
- MIC ([7]; E. coli KU1038, mutant type SP): 0.031 µg/mL (≈ 0.0796 µM)
- MIC ([7]; E. coli KU1039, mutant type SP): 0.125 µg/mL (≈ 0.321 µM)
- MIC ([7]; E. coli KU1040, mutant type SP): ≤ 0.008 µg/mL
- MIC ([7]; E. coli KU1041, mutant type SP): 0.25 µg/mL (≈ 0.642 µM)
- MIC ([7]; E. coli KU1042, mutant type SP): 0.063 µg/mL (≈ 0.162 µM)
- MIC50 ([7]; E. coli mutated in the DNA gyrase): 0.032 µg/mL (≈ 0.0822 µM)
- MIC [8]: 2 µg/mL (≈ 5.14 µM)
- MIC Range [9, 21]: 0.016 to 0.125 µg/mL
- MIC Range [9, 22]: ≤0.008 to 0.125 µg/mL
- MIC Range [9, 23]: ≤0.008 to 0.125 µg/mL
- MIC Range [9, 24]: 0.016 to 0.032 µg/mL
- MIC50 [9, 21]: 0.032 µg/mL (≈ 0.0822 µM)
- MIC90 [9, 21]: 0.032 µg/mL (≈ 0.0822 µM)
- MIC50 [9, 22]: 0.016 µg/mL (≈ 0.0411 µM)
- MIC90 [9, 22]: 0.032 µg/mL (≈ 0.0822 µM)
- MIC50 [9, 23]: 0.016 µg/mL (≈ 0.0411 µM)
- MIC90 [9, 23]: 0.032 µg/mL (≈ 0.0822 µM)
- MIC50 [9, 24]: 0.032 µg/mL (≈ 0.0822 µM)
- MIC90 [9, 24]: 0.032 µg/mL (≈ 0.0822 µM)
- MIC ([9]; strain TMS1): 0.032 µg/mL (≈ 0.0822 µM)
- MIC ([9]; strain TMS2): 0.5 µg/mL (≈ 1.28 µM)
- activity higher than that of the other quinolones ([9]; quinolone-resistant S. pneumoniae): 2-128 fold
- MIC Range [10, 25]: ≤0.008 to 0.125 µg/mL
- MIC50 ([10]; Escherichia coli ciprofloxacin resistant (n=5)): 32 µg/mL (≈ 82.2 µM)
- MIC90 ([10]; Escherichia coli ciprofloxacin resistant (n=5), values marked *: MIC80 value): 32 µg/mL (≈ 82.2 µM)
- MIC50 [10, 25]: ≤ 0.008 µg/mL
- MIC90 [10, 25]: 0.032 µg/mL (≈ 0.0822 µM)
- MIC50 [11]: 0.032 µg/mL (≈ 0.0822 µM)
- MIC Range [11]: 0.016 to 1 µg/mL
- MIC90 ([11]; read-out: MIC90): 0.063 µg/mL (≈ 0.162 µM)
- MIC Range [12]: 0.016 to 0.25 µg/mL
- MIC50 ([12]; Klebsiella aerogenes): 0.032 µg/mL (≈ 0.0822 µM)
- MIC90 ([12]; Klebsiella aerogenes): 0.063 µg/mL (≈ 0.162 µM)
- MIC50 [13]: 0.032 µg/mL (≈ 0.0822 µM)
- MIC90 [13]: 1 µg/mL (≈ 2.57 µM)
- MIC Range [13]: ≤0.008 to 2 µg/mL
- MIC50 ([14]; Enterobacter, read-out: MIC50): 0.06 µg/mL (≈ 0.154 µM)
- MIC90 ([14]; Enterobacter, read-out: MIC90): 16 µg/mL (≈ 41.1 µM)
- MIC Range [14]: ≤0.03 to 64 µg/mL
- MIC distribution (µg/ml) 0.03 [15]: 0
- MIC distribution (µg/ml) 0.06 [15]: 1
- MIC distribution (µg/ml) 0.125 [15]: 4
- MIC distribution (µg/ml) 0.25 [15]: 0
- MIC distribution (µg/ml) 0.5 [15]: 4
- MIC distribution (µg/ml) 1 [15]: 0
- MIC distribution (µg/ml) 2 [15]: 0
- MIC distribution (µg/ml) 4 [15]: 2
- MIC distribution (µg/ml) 16 [15]: 3
- MIC distribution (µg/ml) ≤0.015 [15]: 0
- MIC distribution (µg/ml) ≥32 [15]: 0
- MIC50 ([15]; Enterococcus faecium, n = 14 isolates, read-out: MIC50): 0.25 µg/mL (≈ 0.642 µM)
- MIC90 ([15]; Enterococcus faecium, n = 14 isolates, read-out: MIC90): 16 µg/mL (≈ 41.1 µM)
- MIC Range ([15]; n = 14 isolates): 0.06 to 16 µg/mL
- MIC distribution (µg/ml) 8 ([15]; number of isolates at MIC 8 µg/ml, n = 14): 8
